Test results published in patent US20240124417A1, “COMPOUNDS USEFUL AS IMMUNOMODULATORS” (Bristol-Myers Squibb Company, priority 2019, published 2024).

Biological target: T1, PD-1/PD-L1 (Homo sapiens, UniProt Q9NZQ7)
T1 construct: TVMV protease site linker (C); made in house; host or cells: HEK293T cells
Assay: PD-1/PD-L1 Homogenous Time-Resolved Fluorescence (HTRF) binding assay
Details: PD-L1-His 10 nM, PD-1-Ig 20 nM
Outline: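 Time-resolved FRET read-out using Eu-cryptate anti-Ig (1 nM final) and APC anti-His (20 nM final). Tagged extracellular domains were used in BSA/Tween-20-supplemented dPBS, with compound pre-incubated 15 min with PD-L1-His (10 nM) before PD-1-Ig (20 nM) was added for 15 min. Other human pairs: PD-L2-His 5 nM with PD-1-Ig 20 nM; PD-L1-Ig 10 nM with CD80-His 100 nM.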

T1 sequence (Q9NZQ7 18-239): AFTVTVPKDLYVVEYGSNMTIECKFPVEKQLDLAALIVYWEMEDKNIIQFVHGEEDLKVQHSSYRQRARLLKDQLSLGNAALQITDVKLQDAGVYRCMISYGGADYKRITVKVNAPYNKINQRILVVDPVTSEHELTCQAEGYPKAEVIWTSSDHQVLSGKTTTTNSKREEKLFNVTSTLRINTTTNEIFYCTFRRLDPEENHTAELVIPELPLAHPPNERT

**Q.** How did the IC50 turn out when `CC(=O)NC1CCN(CCCOc2cccc(-c3cccc(COc4cc(OCc5cncc(C#N)c5)c(CNc5nnn[nH]5)cc4Cl)c3C)c2C)CC1` [Example 1036, N-(1-(3-((3′-((4-(((1H-Tetrazol-5-yl)amino)methyl)-2-chloro-5-((5-cyanopyridin-3-yl)-methoxy)phenoxy)methyl)-2,2′-dimethyl-[1,1′-biphenyl]-3-yl)oxy)propyl)piperidin-4-yl)-acetamide] was run?
**A.** 4.2 nM

**Q.** Which IC50 does the source give for `Cc1c(COc2cc(OCc3cncc(C#N)c3)c(CNC(C)(C)c3ncon3)cc2Cl)cccc1-c1cccc(OCC2CCCN(C)C2)c1Cl` (stereo not drawn) [Example 2620, 5-((2-(((2-(1,2,4-oxadiazol-3-yl)propan-2-yl)amino)methyl)-4-chloro-5-((2′-chloro-2-methyl-3′-((1-methylpiperidin-3-yl)methoxy)-[1,1′-biphenyl]-3-yl)methoxy)phenoxy)methyl)nicotinonitrile] here?
**A.** 4.7 nM

**Q.** Which IC50 does the source give for `Cc1c(COc2cc(OCc3cncc(C#N)c3)c(CNCc3ncc(-c4ccccc4)o3)cc2Cl)cccc1-c1cccc(OCC2CCCN(C)C2)c1Cl` (stereo not drawn) [Example 2612, 5-((4-chloro-5-((2′-chloro-2-methyl-3′-((1-methylpiperidin-3-yl)methoxy)-[1,1′-biphenyl]-3-yl)methoxy)-2-((((5-phenyloxazol-2-yl)methyl)amino)methyl)phenoxy)methyl)nicotinonitrile] here?
**A.** 7.3 nM
